Laboratory results as given in US8377975B2, “Oxadiazole derivatives for the treatment of diabetes” (Merck Patent Gesellschaft Mit Beschrankter Haftung, priority 2008, dated 2013).

What was measured:
Assay type in all cases: biochemical
SGK2 = target: T1, SGK2 (Homo sapiens, UniProt Q9HBY8); assay: SGK2 enzyme inhibition; details: Target SGK2
T1 sequence (Q9HBY8 1-367): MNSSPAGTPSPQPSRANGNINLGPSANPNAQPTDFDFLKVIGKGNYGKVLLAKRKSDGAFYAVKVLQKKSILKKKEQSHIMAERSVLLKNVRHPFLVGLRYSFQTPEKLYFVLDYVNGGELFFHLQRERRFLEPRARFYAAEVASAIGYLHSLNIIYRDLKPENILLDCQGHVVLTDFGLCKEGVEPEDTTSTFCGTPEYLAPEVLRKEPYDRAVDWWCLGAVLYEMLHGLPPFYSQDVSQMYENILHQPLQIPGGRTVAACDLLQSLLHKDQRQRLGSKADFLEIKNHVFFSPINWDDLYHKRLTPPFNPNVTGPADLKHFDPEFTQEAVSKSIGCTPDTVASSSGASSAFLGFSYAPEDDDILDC

SGK3 = target: T2, SGK3 (Homo sapiens, UniProt Q96BR1); assay: SGK3 enzyme inhibition; details: Target SGK3
T2 sequence (Q96BR1 1-496): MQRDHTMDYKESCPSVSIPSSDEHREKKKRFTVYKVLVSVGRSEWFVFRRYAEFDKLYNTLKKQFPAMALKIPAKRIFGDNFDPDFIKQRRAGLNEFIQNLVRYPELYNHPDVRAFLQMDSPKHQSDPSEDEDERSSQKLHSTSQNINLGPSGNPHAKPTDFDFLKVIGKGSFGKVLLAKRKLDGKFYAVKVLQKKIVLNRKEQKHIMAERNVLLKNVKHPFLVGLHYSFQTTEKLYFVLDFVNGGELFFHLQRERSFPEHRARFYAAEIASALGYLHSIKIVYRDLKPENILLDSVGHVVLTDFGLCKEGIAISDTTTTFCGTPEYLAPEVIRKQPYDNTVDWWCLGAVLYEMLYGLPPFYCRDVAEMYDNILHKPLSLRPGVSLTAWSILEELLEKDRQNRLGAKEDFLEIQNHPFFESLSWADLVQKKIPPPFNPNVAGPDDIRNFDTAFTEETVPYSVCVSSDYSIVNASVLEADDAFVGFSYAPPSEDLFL

GSK3-beta = GSK3-beta (Homo sapiens, UniProt P49841); assay: GSK3-beta enzyme inhibition; details: Target GSK3-beta
SGK1 = target: T3, SGK1 (Homo sapiens, UniProt O00141); assay: SGK1 enzyme inhibition (filter binding method); details: Target SGK1
T3 sequence (O00141 1-431): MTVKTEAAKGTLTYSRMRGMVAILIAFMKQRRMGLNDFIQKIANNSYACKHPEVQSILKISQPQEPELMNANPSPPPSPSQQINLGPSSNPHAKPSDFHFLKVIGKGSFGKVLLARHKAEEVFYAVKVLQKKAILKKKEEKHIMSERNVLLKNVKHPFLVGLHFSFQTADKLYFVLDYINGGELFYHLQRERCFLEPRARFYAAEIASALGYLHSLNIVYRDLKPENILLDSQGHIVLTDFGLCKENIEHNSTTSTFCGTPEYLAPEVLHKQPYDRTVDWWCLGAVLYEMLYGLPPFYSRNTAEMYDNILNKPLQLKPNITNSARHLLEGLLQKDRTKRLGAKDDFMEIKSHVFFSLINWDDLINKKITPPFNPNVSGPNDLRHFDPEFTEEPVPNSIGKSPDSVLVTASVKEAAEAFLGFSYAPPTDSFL
Source text: Other assays are known from the literature and could readily be performed by the person skilled in the art (see, for example, Dhanabal et al., Cancer Res. 59:189-197; Xin at al., J. Biol. Chem. 274:9116-9121; Sheu et al., Anticancer Res. 18:4435-4441; Ausprunk et al., Dev. Biol. 38:237-248; Gimbrone et al., J. Natl. Cancer Inst. 52:413-427; Nicosia at al., In Vitro 18:538- 549). The inhibition of SGK1 protein kinase can be determined in the filter binding method.

GSK3-beta, sequence (P49841 whole entry): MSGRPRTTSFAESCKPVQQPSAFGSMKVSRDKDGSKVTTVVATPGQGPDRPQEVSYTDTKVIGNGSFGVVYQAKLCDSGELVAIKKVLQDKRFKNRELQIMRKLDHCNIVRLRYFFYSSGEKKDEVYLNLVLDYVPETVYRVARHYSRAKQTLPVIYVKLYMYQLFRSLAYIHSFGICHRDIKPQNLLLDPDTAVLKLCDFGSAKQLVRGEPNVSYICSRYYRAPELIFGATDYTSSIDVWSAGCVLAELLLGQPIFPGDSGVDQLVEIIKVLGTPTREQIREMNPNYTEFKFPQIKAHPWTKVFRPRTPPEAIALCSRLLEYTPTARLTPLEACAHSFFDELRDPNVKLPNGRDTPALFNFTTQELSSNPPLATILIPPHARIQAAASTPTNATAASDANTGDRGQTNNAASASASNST

Compound | IC50 (SGK2) [nM] | IC50 (SGK3) [nM] | IC50 (GSK3-beta) [nM] | IC50 (SGK1) [nM]
CCc1c(-c2nnc(NCc3cccc(F)c3)o2)ccc(O)c1C [Compound A1, 3-ethyl-4-[5-(3-fluorobenzylamino)-1,3,4-oxadiazol-2-yl]-2-methylphenol] | 1 to 100 | 1 to 100 | 1 to 100 | 1 to 100
CCc1c(-c2nnc(NCc3cccc(OC)c3)o2)ccc(O)c1C [Compound A2] | – | – | 100 to 10000 | 1 to 100
CCc1c(-c2nnc(N[C@H](C)c3cccc(OC)c3)o2)ccc(O)c1C [Compound A3] | – | – | 1 to 100 | 1 to 100
CCc1c(-c2nnc(N)o2)ccc(O)c1C [Compound A4, 4-(5-amino-1,3,4-oxadiazol-2-yl)-3-ethyl-2-methylphenol] | – | – | – | 100 to 10000
Oc1ccc(-c2nnc(NCc3cccc(F)c3)o2)nc1 [Compound A5, 6-[5-(3-fluorobenzylamino)-1,3,4-oxadiazol-2-yl]pyridin-3-ol] | – | – | – | > 10000
Oc1ccc(-c2nnc(NCc3cccc(F)c3)o2)c(F)c1F [Compound A6, 2,3-difluoro-4-[5-(3-fluorobenzylamino)-1,3,4-oxadiazol-2-yl]phenol] | – | – | – | > 10000
